Article PMC7006784, “The combination of salvianolic acid A with latamoxef completely protects mice against lethal pneumonia caused by methicillin-resistant Staphylococcus aureus” (Emerging Microbes & Infections, 2020)

Tests used:
SrtA [1] = molecular target: T1, SrtA (Staphylococcus aureus, UniProt Q2FV99); experiment: SrtA activity assay (FRET); type: biochemical, S. aureus
T1 construct: The gene encoding SrtA (lacking the N-terminal transmembrane domain (N1–59)); made in house
Description: The SrtA activity assay was performed by using FRET as described previously. Briefly, a mixture of 4 μM recombinant SrtA and different concentrations of Sal A in a 300 μl reaction volume (50 mM Tris·HCl, 150 mM NaCl and 5 mM CaCl2, pH 7.5) was incubated for 1 h at 37°C. Then, 10 μM substrate peptide was added and incubated for an additional hour. Wells containing all constituents except SrtA served as blank controls. The fluorescence was measured with a microplate reader at λex = 350 nm and λem = 495 nm.

SrtA [2] = molecular target: T1, SrtA; experiment: Reversible inhibition assay of SrtA; type: biochemical, S. aureus; conditions: after incubation at 10 × IC50 and dilution
Description: To evaluate the reversible inhibition by Sal A of SrtA, 100 μl of purified SrtA was incubated with Sal A at a final concentration equal to 10-fold the IC50 for 1 h at 37°C. Then, 9.9 ml reaction buffer was added. Subsequently, 10 μl of the substrate peptide was added to the 190 μl diluted mixture at a final concentration of 10 μM. The fluorescence intensity was measured using a microplate reader at λex = 350 nm and λem = 495 nm. Triplicate measurements were obtained for each data point, and the data are reported as the mean ± SEM.

S. aureus = experiment: Anti-S. aureus activity (MIC by broth microdilution, growth curve); type: cell-based
Description: The minimum inhibitory concentration (MIC) of Sal A was determined by broth microdilution according to the NCCLS guidelines. Briefly, overnight cultures of S. aureus were diluted 1:100 with fresh Brain Heart Infusion (BHI) medium supplemented with or without 256 μg/ml Sal A and grown at 37°C with shaking. Absorbance readings were obtained at OD600 at different time intervals.

[3] = test system: adhesion of S. aureus to fibrinogen; experiment: Fibrinogen binding assay; type: cell-based; conditions: bovine fibrinogen coated plate, crystal violet
Description: Overnight cultures of S. aureus were subcultured into fresh medium with or without Sal A and then grown until the OD600 reached 0.5. Then, 100 μl of the bacterial culture was transferred into each well of a polystyrene 96-well plate coated with 20 μg/ml bovine fibrinogen and incubated for 2 h at 37°C. The cell suspension was discarded, and the wells were rinsed twice with PBS. Then, 25% formaldehyde was added and incubated for 30 min, and the plate was washed three times and stained with crystal violet dye (12.5 g/l). The binding of S. aureus to fibrinogen was quantitated as described previously. The data are presented as the mean ± SEM from three separate experiments.

S. aureus biofilm = experiment: Biofilm formation assay; type: cell-based; conditions: Staphylococcus aureus, 18 h, read-out: inhibition of biofilm formation compared with the untreated group
Description: Overnight cultures of S. aureus were diluted 1:100 in BHI media with or without Sal A to an OD600 of 0.6. Then, 5 µl of the bacterial culture was added to 195 µl BHI media with or without Sal A in a 96-well plate. The plate was incubated at 37°C for 18 h to form a biofilm, which was then quantitated as described previously.

A549 cells = experiment: Invasion assay (internalization of S. aureus into A549 cells); type: cell-based; conditions: CFU count
Description: The assay of the internalization of S. aureus into A549 cells was performed as described. Briefly, 3 × 10^5 A549 cells were plated in each well of a 24-well plate and incubated at 37°C in 5% CO2 for 12 h. S. aureus was grown in BHI broth with or without Sal A to an OD600 of 1.0. Then, the bacterial suspension was added to the plate and incubated for 1 h. The bacterial suspension was discarded, and the A549 cells were washed three times with PBS and treated with DMEM containing 300 μg/ml gentamycin. After incubation for 2 h, the plates were washed three times, and the cells were lysed with sterile distilled water. The lysates were diluted 100-fold in PBS and spread onto BHI agar plates in triplicate. The plates were incubated at 37°C for 12 h, and the number of colony-forming unit (CFU) was determined by manual counting.

[4] = test system: S. aureus protein A (SpA); experiment: SpA-related fluorescence analysis (confocal microscopy); type: cell-based; conditions: 256 μg/ml, FITC-labelled IgG
Description: An overnight culture of S. aureus was diluted 1:100 in BHI broth with or without Sal A and grown until the OD600 reached 1.0. After centrifugation at 2,500 × g for 10 min, the bacterial pellets were fixed with 4% formaldehyde solution for 30 min. After washing three times with PBS, 5% BSA was added for blocking, and the bacteria were incubated for 20 min. Then, the bacteria were rinsed with PBS and resuspended in PBS containing FITC-labelled rabbit anti-goat-IgG (Sigma) at a dilution of 1:50 and incubated at 37°C for 3 h. After washing three times with PBS, the bacteria were placed onto poly-lysine-coated glass slides, and the SpA on the cell surface was visualized by confocal microscopy (Zeiss, LSM 880).

[5] = test system: S. aureus protein A (SpA); experiment: Flow cytometry of FITC-IgG-stained S. aureus (SpA anchoring); type: cell-based; conditions: untreated WT 108.58
Description: To quantify the effect of the Sal A on the anchoring of SpA, the FITC-IgG-stained S. aureus was measured by flow cytometry. S. aureus strains were grown overnight and then were diluted 1:100 in BHI broth with or without Sal A and grown until the OD600 reached 1.0. Then, bacteria were harvested by centrifugation at 2,500 × g for 10 min. The collected pellets were washed once with PBS and were incubated in PBS solution containing 0.2% BSA (wt/vol) for 10 min. Afterward, bacteria were washed thrice and then suspended in PBS containing FITC-labelled rabbit anti-goat-IgG at a dilution of 1:50 and incubated at 37°C in the dark for 60 min. After a thorough washing, bacteria were fixed with formaldehyde (2%, vol/vol) for 10 min at room temperature. Fluorescence signal was detected on a FACSCanto flow cytometer (Becton Dickinson, USA) and analyzed using FACSDiva software.

SrtA [6] = experiment: Western blot of SrtA expression; type: cell-based, S. aureus; conditions: 256, 128, 64, or 32 μg/ml, Western blot with grayscale analysis
Description: The dissolved cell wall proteins and cytoplasmic membranes were obtained according to a previously reported method. Equal volumes of protein extract were separated using a 12% SDS-PAGE gel, and the proteins were transferred onto polyvinylidine difluoride membranes (Wako Pure Chemical Industries, Ltd., Osaka, Japan). After blotting, the membrane was blocked with 5% BSA for 2 h and probed with primary antibodies against S. aureus SrtA overnight at 4°C. Next, the membrane was washed and incubated with HRP-labelled goat anti-rabbit IgG. After washing again with PBS, the immunoreactive bands were visualized by an ECL Western blot detection system (GE Healthcare, UK). The primary antibodies against S. aureus SrtA were produced in-house by our team members. The secondary HRP-labelled goat anti-rabbit IgG antibody was obtained from Proteintech (Chicago, USA).

SrtA [7] = molecular target: T1, SrtA; experiment: Biolayer interferometry assay; type: binding, S. aureus
Description: The kinetics of the binding of Sal A to SrtA were determined by a biolayer interferometry (BLI) assay using the Octet RED96 system (ForteBio, Inc., Menlo Park, CA) as described previously. Ni-NTA sensors were used to bind the His-tag SrtA protein. The assay buffer used was PBS containing 0.1% bovine serum albumin and 0.02% Tween-20, pH 6.5. Before the assay was performed, the Ni-NTA sensors were pre-wetted in assay buffer for 10 min, and then the Ni-NTA sensors were flushed with buffer for 60 s to generate the baseline. SrtA was immobilized on the surface of the sensor tip by incubating it in […] protein solution for 3600 s. The excess protein was removed by washing the sensor with buffer for 300 s. Subsequently, the sensor was exposed to a cycle of 60 s for the baseline step, 200 s for the association step and 100 s for the dissociation step in different concentrations of Sal A solution (250, 125, 62.5, 31.25 and 15.625 μM). The binding of the sensor to protein without the loading of Sal A served as a control. The data were processed using the double reference subtraction method in Forte Bio analysis software (v6.4).

T1 sequence (Q2FV99 60-206): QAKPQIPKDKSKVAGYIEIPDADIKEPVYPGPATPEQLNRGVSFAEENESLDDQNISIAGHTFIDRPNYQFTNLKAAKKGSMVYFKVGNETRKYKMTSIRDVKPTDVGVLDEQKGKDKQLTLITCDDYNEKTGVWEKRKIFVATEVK

SMILES: O=C(/C=C/c1ccc(O)c(O)c1/C=C/c1ccc(O)c(O)c1)O[C@H](Cc1ccc(O)c(O)c1)C(=O)O [Sal A, (2R)-3-(3,4-Dihydroxyphenyl)-2-[(E)-3-[2-[(E)-2-(3,4-dihydroxyphenyl)ethenyl]-3,4-dihydroxyphenyl]prop-2-enoyl]oxypropanoic acid]
- IC50 (SrtA [1]): 11.6 µM
- SrtA activity recovered in comparison with the control group (SrtA [2]): 88 ± 3.21%
- growth of S. aureus (S. aureus; 40-fold the IC50 (up to 200 μM), growth curve with 256 μg/ml): did not inhibit the growth
- MIC (S. aureus; Staphylococcus aureus, broth microdilution): > 1020 µg/mL
- adhesion of S. aureus to fibrinogen [3]: inhibited the adhesion of S. aureus to fibrinogen in a dose-dependent manner
- inhibition at 256 µg/mL (S. aureus biofilm): 33.1%
- number of bacteria entering the cells compared to the control group (A549 cells): significant reduction
- level of green fluorescence (SpA on surface) compared with the WT group [4]: considerably reduced
- mean value of fluorescence yield (Marker: All) [5]: 13.64
- expression of SrtA (SrtA [6]): did not impact the expression
- Kd (SrtA [7]): 21.5 µM
